Here are results for three compounds from patent US20230103444A1 (The Regents of the University of Colorado, a Body Corporate, priority 2020, published 2023).

Where two headings read alike, the source gives them in different places. A value given as a limit tells only on which side of the number the result lay.

One data set concerns the target T1, cat-CHD1L ATPase (Homo sapiens, UniProt Q86WJ1).
T1 construct: inferred from Ni-NTA / imidazole purification; made in house; host or cells: E. coli Rosetta 2 (DE3) pLysS; constructs were a gift from Helena Berglund, Karolinska Institute
T1 sequence (Q86WJ1 16-611 limits assumed): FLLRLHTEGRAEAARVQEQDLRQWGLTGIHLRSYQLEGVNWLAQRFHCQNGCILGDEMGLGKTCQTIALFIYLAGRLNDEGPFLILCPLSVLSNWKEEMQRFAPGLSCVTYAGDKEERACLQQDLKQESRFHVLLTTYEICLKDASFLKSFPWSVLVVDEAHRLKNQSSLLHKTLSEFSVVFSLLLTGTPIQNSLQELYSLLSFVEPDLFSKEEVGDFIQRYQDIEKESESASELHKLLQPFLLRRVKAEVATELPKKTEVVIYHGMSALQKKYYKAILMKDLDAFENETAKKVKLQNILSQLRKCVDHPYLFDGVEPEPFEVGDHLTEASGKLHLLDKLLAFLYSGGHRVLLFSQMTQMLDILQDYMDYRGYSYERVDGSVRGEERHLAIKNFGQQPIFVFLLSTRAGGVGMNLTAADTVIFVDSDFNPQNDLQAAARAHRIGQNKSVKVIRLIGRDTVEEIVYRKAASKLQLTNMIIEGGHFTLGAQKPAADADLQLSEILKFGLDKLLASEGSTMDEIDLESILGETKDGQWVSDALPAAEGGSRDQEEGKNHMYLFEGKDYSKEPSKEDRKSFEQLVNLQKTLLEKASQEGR
Nature of the data set: CHD1L ATPase assay with recombinant catalytic domain (cat-CHD1L). The format is biochemical. The settings on record: for inhibition at 20 µM: confirmed HTS hits, HTS at 20 μM, read-out: inhibition against cat-CHD1L ATPase; for IC50: units given with the values (nM, μM), read-out: activity in dose response studies against cat-CHD1L ATPase (IC50, FIG. 1A). In outline:
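Recombinant cat-CHD1L (100 nM) was incubated with 200 nM c-Myc DNA or mononucleosome in 50 mM Tris pH 7.5, 50 mM NaCl, 1 mM DTT and 5% glycerol, with 10 μM ATP, for 1 h at 37 °C. Background came from no-enzyme wells, with 1% DMSO and 10 mM EDTA as controls.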

In the next data set the test system is TCF-transcription. Briefly: TOPflash TCF-transcriptional reporter assay. The format is cell-based, human. The settings on record: TOPflash reporter in CRC cell lines (SW620, HCT116, DLD1CHD1L-OE), 24 h. As for the experimental part:
TOPflash assay (Millipore, Billerica, Mass.) was used to evaluate TCF transcriptional activity in CRC cells. A total of 20,000 cells per well were plated into 96-well white plates and transfected with TransIT®-LT1 transfection reagent (Mirus, Madison, Wis.). Cells were incubated with transfection mix for 24 h. Next, cells were washed with phosphate-buffered solution (PBS) and a 1:1 ratio of PBS:ONE-Glo™ luciferase reagent Promega (Madison, Wis.) was added and the luminescence was detected within 10 min. A duplicate experiment was conducted to measure cell viability using CellTiter-Glo® Luminescent Cell Viability Assay (Promega, Madison, Wis.), which was used to normalize TOPflash luminescence to obtain the fold change in TCF activity. Experiments were replicated 2× (n=3 for each experiment).
TCF-transcriptional Reporter Assay. […] Afterwards, cells from the white solid bottom plate were carefully washed with PBS and a 1:1 ratio of PBS:One-Glo Luciferase Assay System (Promega) was added, incubated for 10 min, and luminescence was quantified on Envision plate reader (PerkinElmer) for TCF-activity. As a control, cells from the clear plate were lysed with Mammalian Cell Lysis Buffer (Promega) and the total protein from each well was quantified with BCA assay (ThermoFisher).
For orientation: In a reporter assay the amount or activity of a reporter protein is the signal.

The test system of data set [1] is vimentin promoter activity. Briefly: VimPro-GFP reporter 3D high-content imaging in tumor organoids. The format is cell-based, human. The settings on record: 72 h. As for the experimental part: (§1) After validating hits 5-7 against CHD1L mediated TCF transcription, the ability of these compounds to reverse EMT and other malignant properties in CRC were evaluated. E-cadherin and vimentin are putative biomarkers for the epithelial and mesenchymal phenotypes, respectively. [McDonald et al., 2015] Loss of E-cadherin and gain of vimentin are also clinical biomarkers of poor prognosis. [Yun et al., 2014; Richardson et al., 2012; Dhanasekaran et al., 2001; Kashiwagi et al., 2010; Toiyama et al., 2013] Accordingly, lentiviral promoter driven reporters for E-cadherin (pCDH1-EcadPro-RFP) and vimentin (pCDH1-VimPro-GFP) were developed, which faithfully report E-cadherin and vimentin protein expression, respectively. [Zhou et al., 2016; Abraham et al., 2019] SW620 cells transduced with either EcadPro-RFP or VimPro-GFP were cultured as tumor organoids for 72 h, reaching a diameter of 600 μm. Tumor organoids were treated with compounds 5-7 for an additional 72 h to determine the effective concentration 50 percent (EC50) for modulating promoter activity. Changes in promoter expression was quantified using a 3D confocal image […] based high-content analysis algorithm (FIG. 2A-2B). [Zhou et al., 2016; Abraham et al., 2019]
(§2) Stable VimPro-GFP or EcadPro-RFP SW620 reporter cells were generated using pCDH imPro-GFP-EF1-puro virus or pCDH-EcadPro-mCherry-EF1-puro virus as previously reported. [Zhou et al., 2016; Abraham et al., 2019] The stable fluorescently labeled reporter cells were used to generate tumor organoids as described herein. Tumor organoids were treated with CHD1L inhibitors at 10 μM for an additional 72 h. Following treatment, tumor organoids were stained with 16 μM of Hoechst 33342 for 1 h (nuclei stain). Images were taken with a 5× air objective. Z-stacks were set at 26.5 μm apart for a total of 15 optical slices. Imaging and high-content analysis were performed using an Opera Phenix™ and Harmony® software (PerkinElmer, Hopkinton, Mass.). Nuclei were identified within each layer and cells were found with either GFP or mCherry channel. The fluorescence intensities of each channel were calculated and thresholds were set based on the background intensities. Percentages of GFP or mCherry RFP positive cells were calculated and normalized to the DMSO treated group.
3D High-Content Imaging and Analysis of EMT Dual-Reporter Activity. Tumor organoids were imaged using the Opera Phenix high-content screening system (PerkinElmer) in confocal mode utilizing a 10× air objective (NA 0.3). […] Organoids were also imaged in Brightfield to segment and perform high-content analysis of dual reporter specific fluorescence intensity. […] Both fluorescent signals were quantified and normalized as previously described. […]

For data set [2], the system named is E-cadherin promoter activity. Briefly: EcadPro-RFP reporter 3D high-content imaging in tumor organoids. The format is cell-based. The settings on record: 72 h. As for the experimental part: as §1
CHD1L has been reported to confer anti-apoptotic activity by inhibiting activation of caspase-dependent apoptosis. [Li et al., 2013; Sun et al., 2016] Additionally, reversal or inhibition of EMT is known to restore apoptotic activity of cancer cells. [Lu et al., 2014] To determine if CHD1L inhibitors reverse EMT prior to induction of cell death, E-cadherin expression by EcadPro-RFP reporter activity was monitored and cytotoxicity was measured using the CellTox™ Green assay. Cells were treated with CHD1L inhibitors for 72 h and imaged every 2 h.
as §2
3D High-Content Imaging and Analysis of EMT Dual-Reporter Activity. Tumor organoids were imaged using the Opera Phenix high-content screening system (PerkinElmer) in confocal mode utilizing a 10× air objective (NA 0.3). The following excitation and emission (Ex/Em) wavelengths were employed: RFP (561/570-630) and GFP (488/500-550). Organoids were also imaged in Brightfield to segment and perform high-content analysis of dual reporter specific fluorescence intensity. RFP fluorescent signal correlates with E-Cadherin promoter activity, while GFP fluorescent signal is correlates with vimentin promoter activity. Both fluorescent signals were quantified and normalized as previously described. (Esquer, et al., 2021)

The test system of the next data set is HCT116 tumor organoids. Nature of the data set: Tumor organoid cytotoxicity (CellTiter-Glo 3D). The format is cell-based, human. Conditions: Homo sapiens. As for the experimental part:
Cell based cytotoxicity dose response and combination studies. […] Plates were then incubated for 3 days before treatment.
Cell Line Tumor Organoid Culture.
Tumor Organoid Cytotoxicity.
In general terms: ATP-based viability assays read luminescence as a measure of living cells.

Data set [3] can be described thus: Mouse liver microsome stability. The settings on record: CD-1, mouse, liver microsomes, pH 7.4, Microsomal stability Mouse t1/2 (min), Table 6.
Method: Microsome stability. CD-1 mouse microsomes were commercially purchased and the reactions were performed as previously described. […] The master mix was pre-incubated at 37° C. for 5 min, then 1 mM NADPH was added to start the microsomal activity reaction and maintained at 37° C. throughout the time course. Reactions were stopped at 0, 5, 15, 30, 45, and 60 min by adding 200 μL acetonitrile and analyzed by mass spectrometry. The appropriate microsome controls were also performed in the same reaction conditions.
A further data set deals with SW620 tumor organoids. Briefly: Tumor organoid cytotoxicity (CellTiter-Glo 3D). Conditions: Homo sapiens, SW-620, read-out: IC50 of cytotoxicity in SW620 cells.
Setting [4] is: SW620 or HCT116 tumor organoids.

Take `CCc1nnc(NS(=O)(=O)c2ccc(NC(=O)c3nc4ccccc4s3)cc2)s1` [Compound 4]: on cat-CHD1L ATPase, the inhibition (usually how much of the control response was suppressed) at 20 µM was > 50% and the IC50 (commonly the concentration needed to halve the response being measured) fell in the range of 900 to 5000 nM. For the same compound, the “inhibition of TCF-transcription, in words” value in the data set with TCF-transcription is “modest activity in cells with no dose dependent inhibition”.

With `Cc1cc(Nc2ccc(NC(=O)Cc3c[nH]c4ccccc34)cc2)nc(N2CCCC2)n1` [Compound 6.5, 2-(1H-indol-3-yl)-N-(4-((6-methyl-2-(pyrrolidin-1-yl)pyrimidin-4-yl)amino)phenyl)acetamide], the “downregulation of vimentin promoter activity (VimPro-GFP), in words” value in data set [1] (setting [4]) is reported as “marked down-regulation of the VimPro-GFP”. The “upregulation of E-cadherin promoter activity (EcadPro-RFP), in words” value in data set [2] (setting [4]) is recorded as “upregulation of EcadPro-RFP”. Further, the IC50 in the data set with HCT116 tumor organoids (HCT-116, 72 h, Table 6, read-out: 3 D Cytotoxicity 72 hr IC50 (μM) HCT116) was 2.2 µM; with HCT116 tumor organoids (HCT-116, single agent, Table 4A, read-out: Tumor Organoid Cytotoxicity IC50 (μM) HCT116), 2.2 µM; in the data set with SW620 tumor organoids it was < 10 µM. The half-life (as a rule, the time needed for the level to fall by half in the phase considered) at 10 μM in data set [3] came to 1.17 h.

With `Cc1ccc(Nc2nc(N3CCN(CCO)CC3)nc3nccnc23)cc1Cl` [Compound 7], at cat-CHD1L ATPase, the inhibition at 20 µM was > 50% and the 50% inhibitory concentration (IC50) was 900 to 5000 nM. Moreover, the EC50 (usually the concentration giving half of the maximal effect) in data set [1] (Homo sapiens, SW-620, read-out: EC50 downregulation of vimentin promoter activity, SW620 tumor organoids) was 12.8 ± 1.3 µM. Moreover, in data set [2] (Homo sapiens, SW-620, read-out: EC50 upregulation of E-cadherin promoter activity, SW620 tumor organoids), the EC50 was 28 ± 0.003 µM.
